Here are results for nine compounds from patent US20250152675A1, “I-TYPE RECOMBINANT COLLAGEN WITH HIGH TRANSDERMAL ABSORBABILITY, AND USE THEREOF” (XI'AN GIANT BIOGENE TECHNOLOLGY CO., LTD, priority 2022, published 2025).

Residues, ends and D or L forms follow the SMILES beside them.

A short description of the data set: Transdermal penetration through ex vivo mouse skin in a single-chamber diffusion cell, content by BCA kit. It is filed as in vitro ADME, Kunming mice. As to conditions: collagen peptide 5 mg/ml in 0.9% NaCl, diffusion area 2.0 cm^2, 37.5° C. As for the experimental part: 1. Preparation of Mouse Skin Ex Vivo 10 Kunming mice of 20 to 22 g with half male and half […] were used in the experiment. After the mice were killed, the hairs on the abdomen were removed. Then the skin on the hair-removed area was peeled off, stripped of fat and tendons, and rinsed repeatedly with distilled water. After being washed, the mouse skins were rinsed with normal saline, then treated with 10% glycerol, and stored at −20° C. for use (use up within 7 days).
Single-chamber diffusion cell: The effective diffusion area of the diffusion cell is 2.0 cm^2, the volume of the receiving cell is 14 ml, the length of the custom-made stirrer is 1.4 cm, and the receiving solution is 0.9% NaCl solution.
The stored mouse skin was taken out, thawed, washed with normal saline, and sandwiched between the receiving chamber and the supplying chamber, with the medicated side facing the supplying chamber and the skin side facing the receiving chamber. The temperature of the water bath system was adjusted to 37.5° C., and the stirring speed was adjusted to 100 rpm/min. 0.9% NaCl solution pre-warmed at 37° C. was added to the receiving chamber and the air bubbles were exhausted, in order to reduce the interference, the inner surface of the mouse skin was firstly contacted with the receiving solution without medication and all the receiving solution was replaced. Then the 27 collagen peptides synthesized were prepared into 5 mg/ml solutions using 0.9% NaCl respectively, which were injected into the supplying chamber and firmly adhere to the mouse skin respectively. After 24 h, part of the receiving solution was absorbed with a syringe as the sample solution to determine the transdermal amount of collagen peptide.
The BCA kit method was used to determine the polypeptide content in the sample solution. […]
For the compound `CSCC[C@H](NC(=O)CNC(=O)[C@H](CCC(N)=O)NC(=O)[C@H](CC(C)C)NC(=O)CNC(=O)[C@@H]1CCCN1C(=O)[C@H](C)NC(=O)CNC(=O)[C@H](CCC(N)=O)NC(=O)[C@H](CO)NC(=O)CNC(=O)[C@@H]1CCCN1C(=O)[C@H](C)NC(=O)CNC(=O)[C@@H]1CCCN1C(=O)[C@H](C)NC(=O)CN)C(=O)N1CCC[C@H]1C(=O)NCC(=O)N[C@@H](CCC(=O)O)C(=O)N[C@@H](CCCNC(=N)N)C(=O)NCC(=O)N[C@@H](C)C(=O)N[C@@H](C)C(=O)NCC(=O)N[C@@H](CC(C)C)C(=O)N1CCC[C@H]1C(=O)NCC(=O)N1CCC[C@H]1C(=O)N[C@@H](CCCCN)C(=O)NCC(=O)N[C@@H](CC(=O)O)C(=O)N[C@@H](CCCNC(=N)N)C(=O)NCC(=O)N[C@@H](CC(=O)O)C(=O)N[C@@H](C)C(=O)O` [compound 17] (H-GAPGAPGSQGAPGLQGMPGERGAAGLPGPKGDRGDA-OH; N-terminus and C-terminus assumed), the 24h penetration amount was found to be 2998.75 µg. The figure for `CSCC[C@H](NC(=O)CNC(=O)[C@H](CCC(N)=O)NC(=O)[C@H](CC(C)C)NC(=O)CNC(=O)[C@@H]1CCCN1C(=O)[C@H](C)NC(=O)CNC(=O)[C@H](CCC(N)=O)NC(=O)[C@H](CO)NC(=O)CNC(=O)[C@@H]1CCCN1C(=O)[C@H](C)NC(=O)CNC(=O)[C@@H]1CCCN1C(=O)[C@H](C)NC(=O)CNC(=O)[C@H](C)NC(=O)[C@H](CC(=O)O)NC(=O)CNC(=O)[C@H](CCCCN)NC(=O)[C@H](C)NC(=O)CNC(=O)[C@H](CC(=O)O)NC(=O)[C@H](CC(N)=O)NC(=O)CNC(=O)[C@@H]1CCCN1C(=O)[C@H](C)NC(=O)CNC(=O)[C@H](CC(N)=O)NC(=O)[C@H](C)NC(=O)CN)C(=O)N1CCC[C@H]1C(=O)NCC(=O)N[C@@H](CCC(=O)O)C(=O)N[C@@H](CCCNC(=N)N)C(=O)O` [compound 16] (H-GANGAPGNDGAKGDAGAPGAPGSQGAPGLQGMPGER-OH; N-terminus and C-terminus assumed) is 2034.34 µg; for `CC(C)[C@H](NC(=O)CNC(=O)[C@H](CCCNC(=N)N)NC(=O)[C@H](CCC(=O)O)NC(=O)CN)C(=O)N[C@@H](CCC(N)=O)C(=O)NCC(=O)N1CCC[C@H]1C(=O)N1CCC[C@H]1C(=O)NCC(=O)N1CCC[C@H]1C(=O)N[C@@H](C)C(=O)NCC(=O)N1CCC[C@H]1C(=O)N[C@@H](CCCNC(=N)N)C(=O)NCC(=O)N[C@@H](C)C(=O)N[C@@H](CC(N)=O)C(=O)NCC(=O)N[C@@H](C)C(=O)N1CCC[C@H]1C(=O)NCC(=O)N[C@@H](CC(N)=O)C(=O)N[C@@H](CC(=O)O)C(=O)NCC(=O)N[C@@H](C)C(=O)N[C@@H](CCCCN)C(=O)NCC(=O)N[C@@H](CC(=O)O)C(=O)N[C@@H](C)C(=O)NCC(=O)N[C@@H](C)C(=O)N1CCC[C@H]1C(=O)NCC(=O)N[C@@H](C)C(=O)N1CCC[C@H]1C(=O)O` [compound 27] (H-GERGVQGPPGPAGPRGANGAPGNDGAKGDAGAPGAP-OH; N-terminus and C-terminus assumed) it is 2186.24 µg; for `CSCC[C@H](NC(=O)[C@@H]1CCCN1C(=O)CNC(=O)[C@@H]1CCCN1C(=O)[C@@H]1CCCN1C(=O)CNC(=O)[C@H](CCCNC(=N)N)NC(=O)[C@H](CCC(=O)O)NC(=O)CN)C(=O)NCC(=O)N1CCC[C@H]1C(=O)N1CCC[C@H]1C(=O)NCC(=O)N[C@@H](CC(C)C)C(=O)N[C@@H](C)C(=O)NCC(=O)N1CCC[C@H]1C(=O)N1CCC[C@H]1C(=O)NCC(=O)N[C@@H](CCC(=O)O)C(=O)N[C@@H](CO)C(=O)NCC(=O)N[C@@H](CCCNC(=N)N)C(=O)N[C@@H](CCC(=O)O)C(=O)NCC(=O)N[C@@H](C)C(=O)N1CCC[C@H]1C(=O)NCC(=O)N[C@@H](C)C(=O)N[C@@H](CCC(=O)O)C(=O)NCC(=O)N[C@@H](CO)C(=O)N1CCC[C@H]1C(=O)NCC(=O)N[C@@H](CCCNC(=N)N)C(=O)N[C@@H](CC(=O)O)C(=O)O` [compound 24] (H-GERGPPGPMGPPGLAGPPGESGREGAPGAEGSPGRD-OH; N-terminus and C-terminus assumed) it is 2234.67 µg. The figure for `CC(C)[C@H](NC(=O)CNC(=O)[C@H](CCCNC(=N)N)NC(=O)[C@H](CCC(=O)O)NC(=O)CN)C(=O)N[C@@H](CCC(N)=O)C(=O)NCC(=O)N1CCC[C@H]1C(=O)N1CCC[C@H]1C(=O)NCC(=O)N1CCC[C@H]1C(=O)N[C@@H](C)C(=O)NCC(=O)N1CCC[C@H]1C(=O)N[C@@H](CCCNC(=N)N)C(=O)NCC(=O)N[C@@H](C)C(=O)N[C@@H](CC(N)=O)C(=O)NCC(=O)N[C@@H](C)C(=O)N1CCC[C@H]1C(=O)NCC(=O)N[C@@H](CC(N)=O)C(=O)N[C@@H](CC(=O)O)C(=O)NCC(=O)N[C@@H](C)C(=O)N[C@@H](CCCCN)C(=O)NCC(=O)N[C@@H](CC(=O)O)C(=O)N[C@@H](C)C(=O)NCC(=O)N[C@@H](C)C(=O)N1CCC[C@H]1C(=O)NCC(=O)N[C@@H](C)C(=O)N1CCC[C@H]1C(=O)O` [compound 15] (H-GERGVQGPPGPAGPRGANGAPGNDGAKGDAGAPGAP-OH; N-terminus and C-terminus assumed) is 2111.23 µg; for `CSCC[C@H](NC(=O)CNC(=O)[C@@H]1CCCN1C(=O)[C@H](CC(C)C)NC(=O)CNC(=O)[C@H](C)NC(=O)[C@@H](NC(=O)CNC(=O)[C@@H]1CCCN1C(=O)[C@H](CC(C)C)NC(=O)CNC(=O)[C@H](CCCNC(=N)N)NC(=O)[C@H](C)NC(=O)CNC(=O)[C@H](CCC(N)=O)NC(=O)[C@@H]1CCCN1C(=O)CNC(=O)[C@@H]1CCCN1C(=O)[C@@H]1CCCN1C(=O)CNC(=O)[C@H](CCCNC(=N)N)NC(=O)[C@H](CCC(=O)O)NC(=O)CN)[C@@H](C)O)C(=O)N[C@@H](CCCCN)C(=O)NCC(=O)N[C@@H](Cc1c[nH]cn1)C(=O)N[C@@H](CCCNC(=N)N)C(=O)NCC(=O)N[C@@H](Cc1ccccc1)C(=O)N[C@@H](CO)C(=O)NCC(=O)N[C@@H](CC(C)C)C(=O)N[C@@H](CC(=O)O)C(=O)NCC(=O)N[C@@H](C)C(=O)N[C@@H](CCCCN)C(=O)O` [compound 3] (H-GERGPPGPQGARGLPGTAGLPGMKGHRGFSGLDGAK-OH; N-terminus and C-terminus assumed) it is 2224.03 µg; for `CC(C)C[C@H](NC(=O)CNC(=O)[C@@H](NC(=O)[C@@H](NC(=O)CN)C(C)C)C(C)C)C(=O)N1CCC[C@H]1C(=O)NCC(=O)N[C@@H](CCC(N)=O)C(=O)N[C@@H](CCCNC(=N)N)C(=O)NCC(=O)N[C@@H](CCC(=O)O)C(=O)N[C@@H](CCCNC(=N)N)C(=O)NCC(=O)N[C@@H](Cc1ccccc1)C(=O)N1CCC[C@H]1C(=O)NCC(=O)N[C@@H](CC(C)C)C(=O)N1CCC[C@H]1C(=O)NCC(=O)N1CCC[C@H]1C(=O)N[C@@H](CO)C(=O)NCC(=O)N[C@@H](CCC(=O)O)C(=O)N1CCC[C@H]1C(=O)NCC(=O)N[C@@H](CCCCN)C(=O)N[C@@H](CCC(N)=O)C(=O)NCC(=O)N1CCC[C@H]1C(=O)N[C@@H](CO)C(=O)NCC(=O)N[C@@H](C)C(=O)N[C@@H](CO)C(=O)NCC(=O)N[C@@H](CCC(=O)O)C(=O)N[C@@H](CCCNC(=N)N)C(=O)O` [compound 22] (H-GVVGLPGQRGERGFPGLPGPSGEPGKQGPSGASGER-OH; N-terminus and C-terminus assumed) it is 2092.23 µg. `CC(C)C[C@H](NC(=O)CNC(=O)[C@H](CCCNC(=N)N)NC(=O)[C@@H](NC(=O)CNC(=O)[C@H](CC(=O)O)NC(=O)[C@H](CCCCN)NC(=O)CNC(=O)[C@@H]1CCCN1C(=O)[C@H](CO)NC(=O)CNC(=O)[C@H](CC(=O)O)NC(=O)[C@H](C)NC(=O)CNC(=O)[C@H](CCCCN)NC(=O)[C@@H]1CCCN1C(=O)CNC(=O)[C@H](C)NC(=O)[C@H](CC(=O)O)NC(=O)CNC(=O)[C@H](CCCNC(=N)N)NC(=O)[C@H](CC(=O)O)NC(=O)CNC(=O)[C@H](CCCCN)NC(=O)[C@@H]1CCCN1C(=O)CNC(=O)[C@@H]1CCCN1C(=O)[C@H](CC(C)C)NC(=O)CNC(=O)[C@H](C)NC(=O)[C@H](C)NC(=O)CNC(=O)[C@H](CCCNC(=N)N)NC(=O)[C@H](CCC(=O)O)NC(=O)CN)C(C)C)C(=O)N[C@H](C(=O)O)[C@@H](C)O` [compound 18] (H-GERGAAGLPGPKGDRGDAGPKGADGSPGKDGVRGLT-OH; N-terminus and C-terminus assumed): the 24h penetration amount came out at 2309.24 µg. Then `CC(C)C[C@H](NC(=O)CNC(=O)[C@@H](NC(=O)[C@@H]1CCCN1C(=O)CNC(=O)[C@@H]1CCCN1C(=O)[C@H](CCC(=O)O)NC(=O)CNC(=O)[C@H](CCCNC(=N)N)NC(=O)[C@H](C)NC(=O)CN)[C@@H](C)O)C(=O)N1CCC[C@H]1C(=O)NCC(=O)N1CCC[C@H]1C(=O)N1CCC[C@H]1C(=O)NCC(=O)N[C@@H](CCC(=O)O)C(=O)N[C@@H](CCCNC(=N)N)C(=O)NCC(=O)NCC(=O)N1CCC[C@H]1C(=O)NCC(=O)N[C@@H](CO)C(=O)N[C@@H](CCCNC(=N)N)C(=O)NCC(=O)N[C@@H](Cc1ccccc1)C(=O)N1CCC[C@H]1C(=O)NCC(=O)N[C@@H](C)C(=O)N[C@@H](CC(=O)O)C(=O)NCC(=O)N[C@H](C(=O)N[C@@H](C)C(=O)NCC(=O)N1CCC[C@H]1C(=O)N[C@@H](CCCCN)C(=O)O)C(C)C` [compound 8] (H-GARGEPGPTGLPGPPGERGGPGSRGFPGADGVAGPK-OH; N-terminus and C-terminus assumed), with 2013.46 µg.
